“And” between values parts separate entries of the source, which are not always exact repeats. Equal values may be shown once.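 Compound exposure: 48 hours, 5 concentrations, 96-well plates. GI50: concentration for 50% inhibition of growth. TGI is the concentration that stops growth completely.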
What was measured:
Assay in all cases: NCI tumour cell line growth inhibition, 48 h
SN12C renal = system: SN12C renal
IGROV1 ovarian = system: IGROV1 ovarian
A498 renal = system: A498 renal
SK-MEL-2 melanoma = system: SK-MEL-2 melanoma
UACC-62 melanoma = system: UACC-62 melanoma
SK-OV-3 ovarian = system: SK-OV-3 ovarian
SNB-75 CNS = system: SNB-75 CNS
RXF 393 renal = system: RXF 393 renal
TK-10 renal = system: TK-10 renal
M14 melanoma = system: M14 melanoma

SMILES | GI50 (SN12C renal) | TGI (SN12C renal) | GI50 (IGROV1 ovarian) | TGI (IGROV1 ovarian) | GI50 (A498 renal) | TGI (A498 renal) | GI50 (SK-MEL-2 melanoma) | TGI (SK-MEL-2 melanoma) | GI50 (UACC-62 melanoma) | TGI (UACC-62 melanoma) | GI50 (SK-OV-3 ovarian) | TGI (SK-OV-3 ovarian) | GI50 (SNB-75 CNS) | TGI (SNB-75 CNS) | GI50 (RXF 393 renal) | TGI (RXF 393 renal) | GI50 (TK-10 renal) | TGI (TK-10 renal) | GI50 (M14 melanoma) | TGI (M14 melanoma)
COc1ccc(C2SCC(=O)N2NC(=O)C(O)c2ccccc2)cc1 (stereo not drawn) | > 100 µM | > 100 µM | > 100 µM | > 100 µM | > 100 µM | > 100 µM | > 100 µM | > 100 µM | > 100 µM | > 100 µM | > 100 µM | > 100 µM | 80.9 µM | > 100 µM | > 100 µM | > 100 µM | > 100 µM | > 100 µM | > 100 µM | > 100 µM
Cc1cccc2cc3cccc(C(=O)NCCN(C)C)c3nc12 | – | 1.02 µM | – | > 38.8 µM | – | 0.192 µM | – | 1.85 µM | – | 0.386 µM | – | 0.619 µM | – | 0.825 µM | – | 0.931 µM | – | 7.88 µM | – | 2.43 µM
Clc1ccc(N/N=C(\c2ccccc2)c2ccccn2)nc1 | 0.251 µM | > 49.2 µM and 33.1 µM | 0.139 µM | – | 0.133 µM | 16.4 µM and > 100 µM | 0.796 µM | > 95.1 µM and 32.3 µM | 0.288 µM | > 36.6 µM and 15.5 µM | – | > 100 µM | 0.614 µM | – | 0.275 µM | 7.38 µM and 28.5 µM | 0.338 µM | > 100 µM | 0.0879 µM | 14.4 µM and 16.1 µM
Cc1ccc(NC(=O)N2CCCCC2)cc1[N+](=O)[O-] | > 100 µM | > 100 µM | > 100 µM | > 100 µM | 87.8 µM | > 100 µM | > 100 µM | > 100 µM | > 100 µM | > 100 µM | > 100 µM | > 100 µM | > 100 µM | > 100 µM | > 100 µM | > 100 µM | > 100 µM | > 100 µM | > 100 µM | > 100 µM
Oc1c(Cl)cc(CN(Cc2cc(Cl)c(O)c(Cl)c2)C2CCCCC2)cc1Cl | – | > 100 µM | – | > 100 µM | – | > 100 µM | – | > 100 µM | – | > 100 µM | – | > 100 µM | – | > 100 µM | – | > 100 µM | – | > 100 µM | – | > 100 µM
COc1cc2c(c(OC)c1OC)C(=O)c1c-2n(CCCN=[N+]=[N-])c(=O)c2cc([N+](=O)[O-])ccc12 | > 100 µM | > 100 µM | 24.3 µM | > 100 µM | 14 µM | 54.1 µM | 22.8 µM | 70.7 µM | 39.7 µM | > 100 µM | 62.7 µM | > 100 µM | 19.4 µM | 54.9 µM | 19.1 µM | 66.1 µM | > 100 µM | > 100 µM | > 100 µM | > 100 µM
CC1NCCc2c1[nH]c1cc(O)ccc21 (stereo not drawn) | – | > 100 µM | – | > 100 µM | – | > 100 µM | – | > 100 µM | – | > 100 µM | – | > 100 µM | – | > 100 µM | – | > 100 µM | – | > 100 µM | – | > 100 µM
CN(N=O)C(=O)Nc1ccc(C(=O)O)cc1 | – | > 100 µM | – | > 100 µM | – | > 100 µM | – | > 100 µM | – | > 100 µM | – | > 100 µM | – | > 100 µM | – | > 100 µM | – | > 100 µM | – | > 100 µM
COc1cc(/C=C2\NC(=S)C3Cc4c(OC)c(C)c(OC)c(OC)c4C2N3C)c(OC)c(C)c1OC (stereo not drawn) | – | > 100 µM | – | > 100 µM | – | > 100 µM | – | > 100 µM | – | > 100 µM | – | > 100 µM | – | > 100 µM | – | 67.6 µM | – | > 100 µM | – | > 100 µM
CC(=O)OCC1OC(n2c(=S)n(-c3ccccc3)c(=O)c3cc(Br)ccc32)C(OC(C)=O)C(OC(C)=O)C1OC(C)=O (stereo not drawn) | – | > 100 µM | – | > 100 µM | – | > 100 µM | 47 µM and > 100 µM | > 100 µM | – | > 100 µM | – | > 100 µM | 33.8 µM and > 100 µM | 99.2 µM and > 100 µM | 33.7 µM and > 100 µM | > 100 µM | – | – | – | > 100 µM
COC(=O)C1=CO[C@@H](OC2OC(CO)C(O)C(O)C2O)[C@@H]2[C@H](C)[C@@H](O)[C@@H](O)[C@]12O (stereo partly drawn) | – | > 100 µM | – | > 100 µM | – | > 100 µM | – | > 100 µM | – | > 100 µM | – | > 100 µM | – | > 100 µM | – | > 100 µM | – | > 100 µM | – | > 100 µM
CCOC(=O)Nc1ccc(C(=O)/C=C/c2ccccc2)cc1 | 24.4 µM | > 100 µM | 19.3 µM | > 100 µM | 26.1 µM | 72.6 µM | 25.9 µM | 69.7 µM | 20.1 µM | > 100 µM | 26.3 µM | 77.5 µM | 31.6 µM | > 100 µM | 22.5 µM | 49.1 µM | 28.9 µM | 86.5 µM | 19.1 µM | 44.3 µM
N#CSCC1CC(O)(c2ccccc2)CC(c2ccc(Cl)cc2)O1 (stereo not drawn) | 1.81 µM | 3.77 µM | 2.75 µM | 7.72 µM | 1.88 µM | 8.63 µM | 1.89 µM | 3.78 µM | 3.31 µM | 10.9 µM | 14.3 µM | 27.5 µM | 3.58 µM | 13.3 µM | 1.94 µM | 3.72 µM | 2.13 µM | 4.33 µM | 1.75 µM | 3.28 µM
CC(C)C[C@H]1C(=O)N2CCC[C@H]2[C@]2(O)O[C@](NC(=O)[C@@H]3C=C4c5cccc6[nH]c(Br)c(c56)C[C@H]4N(C)C3)(C(C)C)C(=O)N12 | – | > 100 µM | – | > 100 µM | – | > 100 µM | – | > 100 µM | – | > 100 µM | – | > 100 µM | – | > 100 µM | – | > 100 µM | – | > 100 µM | – | > 100 µM
CC(=O)Oc1ccccc1C(=O)NCCC[Se]C#N | 3.2 µM | 12.4 µM | 2.24 µM | 11.2 µM | 2.1 µM | 4.08 µM | 2.55 µM | 5.64 µM | – | – | 3.33 µM | 6.16 µM | 1.88 µM | 4.92 µM | 2.67 µM | 6.7 µM | 1.83 µM | 3.82 µM | 1.82 µM | 5.38 µM
COC(=O)c1ccc(NC(N)=NCC(C)(C)COc2ccc(C(F)(F)F)cc2)nc1 | 1.79 µM | 3.41 µM | – | – | 1.94 µM | 5.82 µM | 1.86 µM | 3.47 µM | 1.66 µM | 3.1 µM | 1.8 µM | 3.45 µM | 1.57 µM | 3.27 µM | 1.49 µM | 2.96 µM | 1.57 µM | 3 µM | – | –
